From PubChem BioAssay AID489041 (Sanford-Burnham Center for Chemical Genomics, 2010)
Active and inactive are the calls of the source. The rule behind the calls is not given here.

Tested on: HEK-293T NF-kB luciferase reporter counterscreen, luminescence
Experiment: NF-kB reporter inhibition in HEK-293T, dose response, counter-screen for T-cell antigen receptor NF-kB inhibitors, HEK-293T cells, luminescence (AID 489041)

| SMILES | IC50 |
| --- | --- |
| CCOC(=O)c1[nH]c(C)c(C(=O)c2cc(F)ccc2F)c1C | 6.54 µM |
| Cc1ccc(Nc2cc(C)nn2-c2nc(C)cc(=O)[nH]2)cc1 | > 80 µM (inactive) |
| CN(C)c1ccc2c(c1)OC(N)=C(C#N)C2c1cccc(F)c1 (stereo not given) | 1.45 µM |
| COc1cc(C(=O)Nc2ccc3c(c2)ncn3C)cc(OC)c1OC | 14.7 µM |
| CCOC(=O)Nc1nc(-c2ccccc2)c(C(=O)c2ccccc2)s1 | > 80 µM (inactive) |
| CCOC(=O)CC1CCCCN1C(=O)c1cc(COc2cccc3cnccc23)on1 (stereo not given) | 1.81 µM |
| COc1ccc(OC)c(-c2nnc3n2N=C(c2ccc(OC)c(OC4CCCC4)c2)CS3)c1 | 3.09 µM |
| CNC[C@H](CC1CCCCC1)NC[C@H](Cc1ccccc1)NCCC12CC3CC(CC(C3)C1)C2 | 25 µM (inactive) |
| COc1ccc(N/N=C/c2c(C(=O)O)ccc3ccccc23)cc1 | 15.8 µM |
| CC(C)(C)c1nnc(N/N=C/c2ccccc2O)n(N)c1=O | 28 µM (inactive) |
| Cc1cccc(N2CCN(C(=O)c3ccc(S(=O)(=O)N(C)c4ccccc4)cc3)CC2)c1C | 10.5 µM |
| O=[N+]([O-])c1ccc(O)c(/C=N/Nc2ccc(Cl)nn2)c1 | > 80 µM (inactive) |
| CC(=O)N(C)C1=C(N2CCOCC2)C(=O)c2ccccc2C1=O | 5.29 µM |
| C=C1C(=O)C=C2CN(C(=O)c3ccccc3)[C@@](Cc3ccc(F)cc3)(C(=O)OC)[C@@H]12 | 11 µM |
| O=C(N/N=C\c1c(O)ccc2ccccc12)c1ccc(S(=O)(=O)N2CCCCC2)cc1 | > 80 µM (inactive) |
| CCOC(=O)c1[nH]c(C)c(C(=O)Nc2cc(Cl)ccc2C)c1C | 4.39 µM |
| Cc1ccc2cccc(NS(=O)(=O)c3ccccc3)c2n1 | > 80 µM (inactive) |
| Cc1nc2c(=O)n(C)c(=O)nc-2n(C)n1 | 1.88 µM |
| COC(=O)c1[nH]c2ccc(F)cc2c1NS(=O)(=O)c1ccc(OC)cc1 | 11.8 µM |
| COC(=O)C1CN(C#N)N(c2ccc(Cl)cc2)C12c1ccccc1-c1ccccc12 (stereo not given) | 15.7 µM |
| COc1ccc(OC)c(C2CC(=O)c3c([nH]c(C(=O)OC(C)C)c3C)C2)c1 (stereo not given) | 2.29 µM |
| C/C=C(\C)C(=O)N[C@@H](c1ccccc1)[C@@H](O)C(=O)O[C@H]1C[C@@]2(O)[C@@H](OC(=O)c3ccccc3)C3[C@](C)(C(=O)[C@H](OC(C)=O)C(=C1C)C2(C)C)[C@H](O)C[C@H]1OC[C@@]31OC(C)=O (stereo not given in full) | > 80 µM (inactive) |
| O=C(Nc1ncc(Cc2ccc(SC(F)F)cc2)s1)c1ccc(OC(F)F)cc1 | 3.66 µM |
| COc1ccc(CNC(=O)c2c(C)oc3c2C(=O)c2ccccc2C3=O)cc1 | 2.15 µM |
| Cc1ccc(/C=N/NC(=O)C2COc3ccccc3O2)s1 (stereo not given) | 51.6 µM (inactive) |
| CCn1c2ccccc2c2cc(Nc3cc(C)nc4ncnn34)ccc21 | 1.34 µM |
| COc1cccc(/C=N/NC(=O)c2[nH]nc3c2CCc2ccccc2-3)c1O | 0.21 µM |

| SMILES | IC50 |
| --- | --- |
| Cc1cc(C(=O)N2CC=C(c3ccccc3)CC2)c2ccccc2n1 | 5.69 µM |
| C[C@]12CCC3C(CCC4=CC(O)CC[C@@]43/C=N/O)C1(O)CCC2C1=CC(=O)OC1 (stereo not given in full) | 0.33 µM |
| COc1ccccc1CNS(=O)(=O)c1ccc(-c2cnc(C3CC3)o2)cc1 | 2.6 µM |
| CCOCCCNC(=O)c1ccc2c(c1)N=C(CC)c1cc(Br)ccc1S2 | 1.46 µM |
| O=C(Nc1ccc(S(=O)(=O)N2CCCCC2)cc1)c1ccc(CN2CCOCC2)cc1 | 3.95 µM |
| CC(C)Oc1ccccc1C1CC(=O)Nc2cc3c(cc21)OCO3 (stereo not given) | 3.01 µM |
| COC(=O)Nc1ccc(S(=O)(=O)N2CCCc3ccccc32)cc1 | 11.9 µM |
| COc1cccc(C2CC(=O)Nc3cc4c(cc32)CCC4)c1 (stereo not given) | 10.7 µM |
| CC1CC(C)CN(S(=O)(=O)c2ccc(NC(=O)c3ccc(=O)[nH]c3)cc2)C1 (stereo not given) | 12.6 µM |
| CCOc1ccc(NC(=O)c2cc3c(C)nc4ccccc4c3o2)cc1 | 6.08 µM |
| COc1cccc(OC)c1C1=NCC(=O)Nc2c1oc1ccc(Br)cc21 | 3.28 µM |
| CC(C)(C)OC(=O)NCCCCCc1cn(CC(=O)NCCCCCCCCCCC(=O)N2CCN(C(=O)OC(C)(C)C)CC2)nn1 | 0.22 µM |
| O=C1c2c(O)ccc(O)c2C(=O)c2c(NCCNCCO)ccc(NCCNCCO)c21 | 10.7 µM |
| CC(C)(C)C(=O)Nc1ccc(NC(=O)c2ccco2)nc1 | 0.27 µM |
| CCOC(=O)N1CCN(C(=O)C2CCCN(Cc3nc(-c4ccc(Cl)cc4)oc3C)C2)CC1 (stereo not given) | 3 µM |
| Oc1ccc2ccccc2c1N=Nc1ccccn1 | > 80 µM (inactive) |
| Cc1ccc(S(=O)(=O)/N=C2\C=C(Nc3ccc(O)cc3)C(=O)c3ccccc32)cc1 | 0.78 µM |
| Cc1cc(C)c(S(=O)(=O)Nc2ccc3c4c(cccc24)CC3)c(C)c1 | 1.73 µM |
| COc1cccc(N2CCN(C(=O)c3ccc(CS(=O)c4ccccc4Cl)o3)CC2)c1 (stereo not given) | 6.1 µM |
| COc1cc(C2c3cc4c(cc3C(OC3OC5COC(c6cccs6)OC5C(O)C3O)C3COC(=O)C23)OCO4)cc(OC)c1O (stereo not given) | > 80 µM (inactive) |
| O=C(c1ccccc1-c1ccccc1)N1CCN(c2ccccn2)CC1 | > 80 µM (inactive) |
| COC(=O)CCC(=O)NC(=S)Nc1sc(C)c(C)c1C(N)=O | 0.74 µM |
| Clc1ccc2c(c1)C(C1=NCCN1)c1ccccc1CS2 (stereo not given) | > 80 µM (inactive) |
| CCOc1ccc(N/C(N)=N/c2nc(CSc3nnc(C)s3)cc(=O)[nH]2)cc1 | 29.9 µM (inactive) |
| CCCCCCCCn1c2c(c(=N)c3c1CCC3)CCCC2 | 1.43 µM |
| CCCC(=O)NC(c1ccc(OC)cc1)c1ccc2cccnc2c1O (stereo not given) | > 80 µM (inactive) |
| C/C(=N\NC(=O)c1cc(C)nc2ccccc12)c1ccccn1 | 3.06 µM |

| SMILES | IC50 |
| --- | --- |
| Cc1noc(C)c1CSc1nc2ccccc2c(=O)n1-c1ccccc1 | 9.04 µM |
| CN(Cc1ccccc1)C1=CC(=[N+]2CCCCC2)CC(C)(C)C1 | 0.73 µM |
| COc1cc(NS(=O)(=O)c2ccc(C)cc2)c2ncccc2c1 | 1.65 µM |
| CSc1nccc(-c2nn(-c3ccc(C)cc3)ccc2=O)n1 | 6.22 µM |
| O=C(NN=Cc1c(O)ccc2ccccc12)c1ccc2c(c1)OCO2 | 0.74 µM |
| CC(C)Nc1ccc(C(CC(N)=O)NC(=O)Cc2ccc(Br)cc2)cc1[N+](=O)[O-] (stereo not given) | 68.8 µM (inactive) |
| CCCCCCCCn1c2c(c(=N)c3ccccc31)CCC2 | 1.39 µM |
| CC(=O)O[C@@]12CO[C@@H]1C[C@H](O)[C@@]1(C)C(=O)[C@H](O)C3=C(C)[C@@H](OC(=O)[C@H](O)[C@@H](NC(=O)c4ccccc4)c4ccccc4)C[C@@](O)([C@@H](OC(=O)c4ccccc4)C12)C3(C)C (stereo not given in full) | > 80 µM (inactive) |
| CCOC(=O)Nc1nc(-c2ccccc2)c(C(=O)c2ccc(Cl)cc2)s1 | 3.06 µM |
| O=C(Sc1cccc2cccnc12)c1ccc(F)cc1 | 34.2 µM (inactive) |
| Cc1ccc(NC(=O)c2cc3ccccc3oc2=O)cc1S(=O)(=O)N(C)C | < 0.16 µM |
| CC1(C)CC(N2CCN(C(c3ccccc3)c3ccccc3)CC2)=CC(=[N+]2CCCCC2)C1 | 1.25 µM |
| CC1(C)Cc2c(sc(NC(=O)COc3cccc4ccccc34)c2C#N)C(C)(C)N1 | > 80 µM (inactive) |
| C=CCOC(=O)c1[nH]c2c(c1C)C(=O)CC(c1ccco1)C2 (stereo not given) | < 0.16 µM |
| Nc1ncn([C@@H]2O[C@H](CO)[C@@H](O)[C@H]2O)c(=O)n1 | 4.76 µM |
| Cc1ccc(C(=O)O/N=C(\N)c2ccccn2)c(C)c1 | 0.53 µM |
| COC(=O)c1ccccc1NC1=C/C(=N\S(=O)(=O)c2cccs2)c2ccccc2C1=O | 1.04 µM |
| CCOC(=O)COc1cccc2c(=O)n(CC(=O)NCc3ccccc3)ccc12 | 0.63 µM |
| CC(C)n1c(CN(C)Cc2ccccc2)nc2c1c(=O)n(C)c(=O)n2C | 2.88 µM |
| C=CCn1c(SCc2c(C)noc2C)nc2ccccc2c1=O | 2.82 µM |
| COc1cc2nc(NC(=O)c3ccco3)sc(=O)c2cc1OC | 66.7 µM (inactive) |
| Cc1ccc(NC(=O)Nc2ccnc(-c3cccnc3)n2)cc1 | > 80 µM (inactive) |
| CCCSc1nnc(Sc2nnnn2-c2ccccc2)s1 | 9.43 µM |
| CCOc1ccc(Nc2cc(C)nc(-n3nc(C)cc3C)n2)cc1 | 3.93 µM |
| O=C1CC(c2cccc(Br)c2)c2cc3c(cc2N1)CCC3 (stereo not given) | 6.52 µM |
| COC(=O)Cc1[nH]n(-c2nc3ccccc3s2)c(=O)c1C(C)=Nc1ccc(OC)cc1 | < 0.16 µM |
| CCOc1ccccc1NS(=O)(=O)c1ccc(-c2cnc(C3CC3)o2)cc1 | 1.79 µM |

| SMILES | IC50 |
| --- | --- |
| CCOc1ccccc1N1CC(O)=C(c2nc3ccccc3s2)C1=N | 8.73 µM |
| CCCCOc1ccccc1C1CC(=O)NC2=C1C(=O)CCC2 (stereo not given) | 12.8 µM |
| COc1ccc(/C=C/C(=O)c2cc(F)ccc2OC(=O)c2ccccc2)cc1OC | < 0.16 µM |
| O=C(Nc1ccccc1Cl)/C(Cl)=C(\Cl)S(=O)c1ccccc1 (stereo not given) | 9.87 µM |
| O=C(N/N=C/c1c(O)ccc2ccccc12)c1ccc(Br)o1 | 0.55 µM |
| Cc1nnc(N/N=C/c2ccccn2)[nH]c1=O | > 80 µM (inactive) |
| O=S(=O)(c1cc(F)ccc1F)N1CCN(c2ncnc3ccccc23)CC1 | 3.94 µM |
| Cc1cc(-c2ccc(S(=O)(=O)N(C)c3ccc(C)c(C)c3)s2)on1 | 7.86 µM |
| COc1ccc(C(=O)NNC(=O)c2ccccn2)cc1 | 2.92 µM |
| O=C(Nc1ccc(N2CCCCC2)cc1)c1ccccn1 | 3.23 µM |
| O=C(Nc1ccc(Cc2ccncc2)cc1)c1ccc(S(=O)(=O)N2CCCC2)cc1 | 2.75 µM |
| Cc1ccc(COC(=O)c2cc([N+](=O)[O-])ccc2N2CCOCC2)cc1 | 3.3 µM |
| Cc1nc(Sc2nnnn2C)c2c3c(sc2n1)CCC3 | 31.4 µM (inactive) |
| CCCCCCCCCCCCCCCC[n+]1ccc(/C=N/O)cc1 | 20.7 µM (inactive) |
| COc1ccc(Br)cc1/C(C)=N/NC1=NCCN1 | 9.87 µM |
| CCOCCCNC(=O)c1cc2c(=O)n3cccc(C)c3nc2n1C | > 80 µM (inactive) |
| Cc1c(C(=O)OCc2ccccc2)[nH]c2c1C(=O)CC(c1ccco1)C2 (stereo not given) | 10.1 µM |
| O=C(/C=C/c1cccc([N+](=O)[O-])c1)n1cnc2ccccc21 | 51.3 µM (inactive) |
| C=C(C)C(=O)O[C@H]1C/C(C)=C\C(=O)/C=C(\C)[C@H](O)[C@@H]2OC(=O)C(=C)[C@@H]21 | 19.7 µM |
| C[C@]12CC[C@H]3[C@@H](CC[C@]4(O)C[C@@H](O)CC[C@]34C=O)[C@@]1(O)CC[C@@H]2C1=CC(=O)OC1 | 0.34 µM |
| Cc1ccc2c(c1)sc(-c1ccc(N(C)C)cc1)[n+]2C | 0.87 µM |
| COc1cc(NCCCCCCCN)c2ncccc2c1 | 11.8 µM |
| c1cc2c(cc1C1=NNC(=NC3CC3)SC1)OCCO2 | 2.33 µM |
| Cc1ccc(C)c(N=Nc2ccc(O)c3ncccc23)c1 | 21 µM (inactive) |
